The results in this text go back to paper PMC9315260, “Diarylamine-Guided Carboxamide Derivatives: Synthesis, Biological Evaluation, and Potential Mechanism of Action” (Frontiers in Chemistry, 2022).

One test has as its system AURORA. The experiment in a line: ADP-GLO kinase inhibitory assay, AURORA. Type of test: biochemical. The protocol: (§1) Based on the aforementioned results for the potential mechanism of action, the kinase inhibitory profile of compounds C6 and C11 were screened at two dose concentration of 10 and 1 µM over a panel of 15 kinases, and the kinase inhibitory activities are listed in supporting information (Supplementary Table S1).
(§2) The kinase inhibitory profile of compounds C6 and C11 were screened at two dose concentration of 10 and 1 µM over a panel of 15 kinases, and each assay was repeated twice. All the inhibitory assays were carried out through kinase profiling services provided by HY Biotech (Chinese), in which ADP-GLO kinase assays were used.
(§3) The kinase inhibitory profile of compounds C6 and C11 were screened at two dose concentration of 10 µM and 1 µM over a panel of 15 kinases, and each assay was repeated twice. All the inhibitory assays were carried out through kinase profiling services provided by HY Biotech (Chinese), in which ADP-GLO kinase assays were used.
(In general: ADP-Glo first removes unused ATP, then detects ADP through luciferase.)

The target in the next test is AKT1 (Homo sapiens, UniProt P31749). The experiment in a line: ADP-GLO kinase inhibitory assay, AKT1. The format is biochemical. The protocol:
as §1, §2, §3

A further test concerns the target CDK2/A2 (Homo sapiens, UniProt P24941). Description: ADP-GLO kinase inhibitory assay, CDK2/A2. Type of test: biochemical. The settings on record: for inhibition of CDK2/A2, in words: at 1 μM. The protocol:
as §1, §2, §3

A further test concerns the target T1, CHK1 (Homo sapiens, UniProt O14757).
T1 sequence (O14757 1-476): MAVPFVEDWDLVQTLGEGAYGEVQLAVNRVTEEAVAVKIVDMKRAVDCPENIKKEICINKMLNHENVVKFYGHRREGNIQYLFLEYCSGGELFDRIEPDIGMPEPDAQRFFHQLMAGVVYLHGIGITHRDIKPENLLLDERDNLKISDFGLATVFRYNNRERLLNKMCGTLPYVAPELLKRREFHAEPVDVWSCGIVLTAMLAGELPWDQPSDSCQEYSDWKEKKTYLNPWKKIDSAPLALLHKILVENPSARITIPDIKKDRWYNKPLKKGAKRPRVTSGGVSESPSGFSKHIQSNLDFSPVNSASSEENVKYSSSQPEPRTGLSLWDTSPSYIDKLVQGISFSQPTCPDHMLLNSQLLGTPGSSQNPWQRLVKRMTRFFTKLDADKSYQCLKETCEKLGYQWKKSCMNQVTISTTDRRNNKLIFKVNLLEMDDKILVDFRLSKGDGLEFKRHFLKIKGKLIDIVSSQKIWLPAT
Description: ADP-GLO kinase inhibitory assay, CHK1. The format is biochemical. The protocol: as §1, §2, §3

The test system of the next test is A875 cells. The experiment in a line: Annexin V-FITC/PI dual staining flow cytometry. The format is cell-based, human. The following applies: for apoptotic rate: 24 h, 2×IC50 concentration, FITC(+)PI(−); for apoptosis induction, in words: 24 h treatment. On the procedure:
Apoptosis induction is one of the important modes of action for antitumor drugs.
Quantitative analysis of apoptotic and necrotic cell death induced by potential molecules was investigated using Annexin V-FITC/PI dual staining assay ([Yu et al., 2015]; [Huang et al., 2021]).
Quantitative analysis of apoptotic and necrotic cell death induced by the test compounds was performed by Annexin V-FITC apoptosis detection kit according to the manufacturer’s instructions (Abcam). Briefly, 2×10^5 A875 cells were seeded in 6-well plates and grown overnight. […] Cells treated with 0.1% DMSO were served as solvent control. Following treatment cells were harvested, washed twice with ice-cold PBS and resuspended in binding buffer. Then the cells were stained by adding 5 µl of Annexin V-FITC and 5 µl of propidium iodide, sit for 5 min at room temperature in the dark and analyzed by flow cytometry (Beckman coulter FC500).
(In general: A flow cytometer gives signals particle by particle.)

Test [1] concerns SGC-7901 (human gastric cancer cell line). The experiment in a line: MTT in vitro cytotoxicity assay, SGC-7901. The format is cell-based. The following applies: for IC50: SGC-7901, Table 3, MTT, mean ± S.D.; for inhibition at 100 µM: SGC-7901, at 100 µM, read-out: Cell growth inhibition (%) SGC-7901. The procedure, abridged:
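Cytotoxicity was measured by the MTT assay, with 5-FU as control. IC50 values were derived per cell line and are given as mean ± S.D. from triplicates in three independent experiments.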

A further test concerns the target ERK1 (Homo sapiens, UniProt P27361). Description: ADP-GLO kinase inhibitory assay, ERK1. The format is biochemical. On the procedure: as §1, §2, §3
For another test, the target named is DAPK1 (Homo sapiens, UniProt P53355). The experiment in a line: ADP-GLO kinase inhibitory assay, DAPK1. Type of test: biochemical. On the procedure: as §1, §2, §3
Sequence of DAPK1 (P53355 whole entry, species assumed): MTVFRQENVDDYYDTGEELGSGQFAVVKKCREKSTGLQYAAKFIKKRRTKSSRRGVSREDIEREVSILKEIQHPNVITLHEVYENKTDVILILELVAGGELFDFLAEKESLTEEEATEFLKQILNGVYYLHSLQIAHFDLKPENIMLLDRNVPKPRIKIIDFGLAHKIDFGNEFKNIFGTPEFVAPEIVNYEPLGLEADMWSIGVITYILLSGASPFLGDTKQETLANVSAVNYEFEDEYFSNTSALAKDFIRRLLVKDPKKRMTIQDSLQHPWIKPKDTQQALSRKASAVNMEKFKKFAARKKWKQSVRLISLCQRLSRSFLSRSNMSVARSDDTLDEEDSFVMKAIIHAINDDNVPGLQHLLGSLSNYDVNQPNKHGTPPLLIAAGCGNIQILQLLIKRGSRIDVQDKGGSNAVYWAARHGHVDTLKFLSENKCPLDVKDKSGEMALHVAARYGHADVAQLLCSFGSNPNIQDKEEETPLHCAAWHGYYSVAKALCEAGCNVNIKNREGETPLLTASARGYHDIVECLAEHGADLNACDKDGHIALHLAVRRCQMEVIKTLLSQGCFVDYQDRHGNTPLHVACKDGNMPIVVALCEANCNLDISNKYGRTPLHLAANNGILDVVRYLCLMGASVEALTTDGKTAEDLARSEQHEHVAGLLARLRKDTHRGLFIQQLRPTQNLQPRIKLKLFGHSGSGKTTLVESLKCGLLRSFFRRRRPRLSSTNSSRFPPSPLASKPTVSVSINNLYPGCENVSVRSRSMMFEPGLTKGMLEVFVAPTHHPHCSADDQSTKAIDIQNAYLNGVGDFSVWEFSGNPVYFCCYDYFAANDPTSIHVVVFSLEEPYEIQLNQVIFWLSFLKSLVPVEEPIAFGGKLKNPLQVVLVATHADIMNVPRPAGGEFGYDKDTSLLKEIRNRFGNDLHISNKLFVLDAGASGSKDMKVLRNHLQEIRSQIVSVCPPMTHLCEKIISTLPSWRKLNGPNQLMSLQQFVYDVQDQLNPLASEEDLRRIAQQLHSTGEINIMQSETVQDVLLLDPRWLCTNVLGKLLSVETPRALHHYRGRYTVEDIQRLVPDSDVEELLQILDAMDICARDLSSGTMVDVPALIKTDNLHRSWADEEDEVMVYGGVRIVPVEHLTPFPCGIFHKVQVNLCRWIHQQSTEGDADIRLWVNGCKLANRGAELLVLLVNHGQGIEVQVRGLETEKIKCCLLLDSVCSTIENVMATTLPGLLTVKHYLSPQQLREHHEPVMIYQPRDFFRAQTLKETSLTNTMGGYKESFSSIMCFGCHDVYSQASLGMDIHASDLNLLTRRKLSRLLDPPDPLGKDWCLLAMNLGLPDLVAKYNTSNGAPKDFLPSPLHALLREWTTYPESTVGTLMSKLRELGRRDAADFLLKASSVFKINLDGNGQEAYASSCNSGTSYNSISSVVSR
In the next test the target is MAPK1 (Homo sapiens, UniProt P28482). Description: ADP-GLO kinase inhibitory assay, MAPK1. Type of test: biochemical. The following applies: for inhibition of MAPK1, in words: at 1 μM. On the procedure:
as §1, §2, §3

The target in the next test is PLK1 (Homo sapiens, UniProt P53350). The experiment in a line: ADP-GLO kinase inhibitory assay, PLK1. The format is biochemical. On the procedure:
as §1, §2, §3

A further test concerns the target CAMK2 alpha (Homo sapiens, UniProt Q9UQM7). Description: ADP-GLO kinase inhibitory assay, CAMK2 alpha. The format is biochemical. On the procedure:
as §1, §2, §3

Sequence of AKT1 (P31749 whole entry, species assumed): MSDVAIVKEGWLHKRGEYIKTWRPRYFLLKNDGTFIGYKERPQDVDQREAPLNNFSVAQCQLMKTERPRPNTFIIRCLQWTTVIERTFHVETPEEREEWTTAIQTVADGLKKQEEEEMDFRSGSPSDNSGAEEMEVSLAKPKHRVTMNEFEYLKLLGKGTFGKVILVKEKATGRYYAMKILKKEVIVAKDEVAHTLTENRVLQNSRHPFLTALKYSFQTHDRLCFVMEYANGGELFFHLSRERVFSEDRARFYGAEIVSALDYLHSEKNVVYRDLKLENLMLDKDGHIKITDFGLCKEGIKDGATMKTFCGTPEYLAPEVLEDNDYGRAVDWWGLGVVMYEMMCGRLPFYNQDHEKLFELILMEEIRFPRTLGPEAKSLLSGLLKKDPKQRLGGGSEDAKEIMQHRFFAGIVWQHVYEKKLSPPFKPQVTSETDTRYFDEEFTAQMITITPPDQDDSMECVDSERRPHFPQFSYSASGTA
Sequence of ERK1 (P27361 whole entry, species assumed): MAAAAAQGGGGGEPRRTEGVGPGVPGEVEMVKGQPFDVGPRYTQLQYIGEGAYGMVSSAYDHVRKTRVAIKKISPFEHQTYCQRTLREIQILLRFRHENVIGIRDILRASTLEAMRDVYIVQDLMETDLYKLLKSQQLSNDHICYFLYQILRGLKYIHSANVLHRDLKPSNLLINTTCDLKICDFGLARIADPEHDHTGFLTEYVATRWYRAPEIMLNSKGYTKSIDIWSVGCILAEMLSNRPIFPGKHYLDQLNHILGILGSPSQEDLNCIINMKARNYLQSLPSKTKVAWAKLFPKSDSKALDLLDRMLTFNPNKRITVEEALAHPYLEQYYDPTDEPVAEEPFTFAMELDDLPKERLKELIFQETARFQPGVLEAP
Sequence of CAMK2 alpha (Q9UQM7 whole entry): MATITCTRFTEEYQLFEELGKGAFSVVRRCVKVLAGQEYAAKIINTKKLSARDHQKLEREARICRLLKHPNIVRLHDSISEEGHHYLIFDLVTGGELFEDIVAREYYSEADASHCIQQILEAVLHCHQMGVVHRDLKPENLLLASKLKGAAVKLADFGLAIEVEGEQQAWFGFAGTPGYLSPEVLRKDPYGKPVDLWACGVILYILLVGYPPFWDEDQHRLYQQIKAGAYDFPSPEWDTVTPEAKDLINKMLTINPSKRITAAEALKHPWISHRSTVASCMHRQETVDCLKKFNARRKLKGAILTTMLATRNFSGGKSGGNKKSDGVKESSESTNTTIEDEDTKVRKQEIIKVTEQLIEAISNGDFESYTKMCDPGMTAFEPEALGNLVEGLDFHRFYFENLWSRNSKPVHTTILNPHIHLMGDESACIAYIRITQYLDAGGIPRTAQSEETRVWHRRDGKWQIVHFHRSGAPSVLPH
Sequence of MAPK1 (P28482 whole entry, species assumed): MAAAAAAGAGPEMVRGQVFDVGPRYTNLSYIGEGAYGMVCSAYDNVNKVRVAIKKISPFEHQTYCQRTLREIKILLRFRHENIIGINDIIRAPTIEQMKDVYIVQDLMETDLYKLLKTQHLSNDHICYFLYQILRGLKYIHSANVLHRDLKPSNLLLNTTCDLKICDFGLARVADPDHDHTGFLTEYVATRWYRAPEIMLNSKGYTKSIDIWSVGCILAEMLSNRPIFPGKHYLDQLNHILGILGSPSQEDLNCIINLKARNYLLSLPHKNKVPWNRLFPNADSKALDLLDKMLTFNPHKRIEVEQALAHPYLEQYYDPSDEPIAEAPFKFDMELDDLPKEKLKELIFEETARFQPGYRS
Sequence of PLK1 (P53350 whole entry, species assumed): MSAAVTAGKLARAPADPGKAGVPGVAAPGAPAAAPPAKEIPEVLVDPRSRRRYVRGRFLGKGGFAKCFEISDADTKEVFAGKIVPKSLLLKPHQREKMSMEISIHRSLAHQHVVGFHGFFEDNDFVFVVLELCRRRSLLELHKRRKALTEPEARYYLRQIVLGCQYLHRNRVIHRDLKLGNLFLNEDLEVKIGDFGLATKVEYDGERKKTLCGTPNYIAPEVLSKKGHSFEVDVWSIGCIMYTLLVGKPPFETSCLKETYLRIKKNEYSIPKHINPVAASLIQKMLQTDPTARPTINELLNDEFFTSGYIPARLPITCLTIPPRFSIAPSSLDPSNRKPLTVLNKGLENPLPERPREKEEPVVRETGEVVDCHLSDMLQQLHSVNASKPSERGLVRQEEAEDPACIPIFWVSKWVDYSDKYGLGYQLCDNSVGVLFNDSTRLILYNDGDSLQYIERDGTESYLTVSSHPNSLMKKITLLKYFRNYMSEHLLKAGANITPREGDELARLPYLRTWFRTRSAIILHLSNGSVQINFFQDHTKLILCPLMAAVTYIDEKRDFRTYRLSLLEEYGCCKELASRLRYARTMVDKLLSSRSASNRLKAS

Turning to `O=C(Nc1cccc(C(F)(F)F)c1)c1cccnc1Nc1cccc(C(F)(F)F)c1` [C6, N-(3-(Trifluoromethyl)phenyl)-2-((3-(trifluoromethyl)phenyl)amino)nicotinamide], the “Inhibition activity (%) AURORA” value came out at 4.35% in the test with AURORA (1 µM) and 7.74% in the test on AURORA (10 µM). Further, the inhibition (in general, the drop in the measured response relative to a control, in per cent) at 1 µM worked out at 10.4% on AKT1; 23.4% on CDK2/A2; 10.2% against CHK1; 6.76% at ERK1; 8.48% against DAPK1; 28.8% against MAPK1. In addition, the values for the inhibition at 1 µM on PLK1 and against CAMK2 alpha were 5.21% and 5.12%, respectively. Besides, the inhibition at 10 µM was -6.77% at AKT1; 15% on CDK2/A2; -0.18% against CHK1; -6.1% against ERK1; -7.18% against DAPK1; 17.6% against MAPK1. Also, the inhibition at 10 µM was -0.95% against PLK1 and 37.8% at CAMK2 alpha. Besides, the “inhibition of CDK2/A2, in words” value against CDK2/A2 is “certain inhibitions”. This molecule gave an apoptotic rate in the test with A875 cells of 12%. Also, the “apoptosis induction, in words” value in the test on A875 cells is reported as “induced apoptotic changes”. Also, in test [1], inhibition was half-maximal at 5.53 ± 0.82 µM (IC50). The inhibition at 100 µM in [1] worked out at 90.5 ± 3.8%. The “inhibition of MAPK1, in words” value at MAPK1 was “certain inhibitions”.
With `O=C(Nc1ccc(Cl)nc1)c1cccnc1Nc1cccc(C(F)(F)F)c1` [C11, N-(6-Chloropyridin-3-yl)-2-((3-(trifluoromethyl)phenyl)amino)nicotinamide], the “Inhibition activity (%) AURORA” value is 9.65% in the test on AURORA (1 µM) and 12.58% in the test on AURORA (10 µM). In addition, the inhibition at 1 µM against AKT1 was 13.3%; against CDK2/A2, 26.8%; against CHK1, 19.5%; on ERK1, 18.2%; against DAPK1 it was -2.25%; against MAPK1, 24.4%. Further, the inhibition at 1 µM at PLK1 was determined as 7.32%; on CAMK2 alpha, 5.65%. The inhibition at 10 µM on AKT1 is -5.21%; at CDK2/A2, 16.7%; on CHK1, 3.66%; against ERK1 it was 3.07%; at DAPK1 it was 6.49%; at MAPK1, 7.96%. Besides, the inhibition at 10 µM on PLK1 was 2.02%; on CAMK2 alpha, -1.53%. In addition, the “inhibition of CDK2/A2, in words” value against CDK2/A2 was “some inhibitions”. In the test with A875 cells, this molecule displayed an apoptotic rate of 27%. The “apoptosis induction, in words” value in the test with A875 cells is given as “induced apoptotic changes”. For the same molecule, in test [1], the half-maximal inhibitory concentration (IC50) (in general, the concentration needed to halve the response being measured) came out at 9.13 ± 3.52 µM. The inhibition at 100 µM in test [1] came to 85.6 ± 4.3%. At MAPK1, the “inhibition of MAPK1, in words” value is given as “some inhibitions”.
